Measured values taken from patent US20060154903A1, “Betulinol derivatives as anti-cancer agents” (priority 2004, published 2006).
Where two headings read alike, the source gives them in different places.

How the values were obtained:
[1] = Solubility in DMSO diluted with culture medium (GC)
Description: The residue was dissolved in chloroform analyzed on GC.
Ethyl ether was then evaporated. […] Concentration of drug in the above solutions was analyzed by GC and determined from the standard solubility curve.

[2] = Tolerability of solubilized drug in mice with prostate cancer cell xenografts; format: in vivo; details: final concentration of 22% ethanol and 2×10^−3 mol per liter of betulonic acid
Description: In the present experiment, twelve male athymic mice were utilized. Seven to ten million cells, from a prostate cancer LNCaP cell line culture, were suspended homogenously in a Matrigel basement membrane matrix and transplanted in mice as xenografts. Tumors were visible within a week. […] Control groups of mice were also injected daily with a solution containing 22% ethanol in phosphate buffer solution (PBS) containing 4% albumin for a duration of 24 days. […] The volume of the tumors was determined daily using a caliper in order to observe any change in the tumor volume (FIG. 12), calculated according to the formula π/6(1×w×h). Mice were sacrificed by CO2 asphyxiation on day 24 after the first injection (FIGS. 13A-D). Total percent increase in tumor volume in drug treated and control groups was assessed (FIG. 14).

[3] = test system: human prostate cancer LNCaP cell line; assay: MTT cytotoxicity assay, LNCaP; format: cell-based; details: LNCaP; for inhibition at 100 µM / inhibition at 10 µM / inhibition at 1 µM: Homo sapiens, read-out: Growth Inhibition %; for inhibition at 100 µM: 1 × 10^−4 M; for inhibition at 10 µM: 1 × 10^−5 M; for inhibition at 1 µM: 1 × 10^−6 M
Description: The human prostate cancer LNCaP, PC-3, and DU-145 cell lines, as well as human fibroblast cell line, were obtained from the American Type Culture Collection (“ATCC”) and maintained in RPMI-1640, F-12k, and MEM mediums, respectively, supplemented with 10% FBS. Cell lines were maintained at 37° C. under a humidified atmosphere and 5% CO2 for testing of the cytotoxicity of betulinol derivatives. The cytotoxicity assay was performed using MTT assay according to the instructions of ATCC protocol. Cells 1×10^5 in 0.1 ml/well were plated in 96-well culture plates (Costar) and incubated with a different dilution of betulinol derivatives for 24, 48, and 72 hours. Ten μl of 3-[4,5-dimethylthiazol-2-yl]-2,5 diphenyl tetrazolium bromide was added into each well at the end of each incubation period. The reaction product, formazan, was dissolved in the detergent, and the absorbance was read at 540 nm (Ref).
(§1) However, these compounds were not tested on prostate cancer LNCaP cell line by NCI. […] The anti-tumor activity of the compounds was determined at three doses and the total growth inhibition kill effect as pertinent of the control at 24, 48, and 72 hours as presented in Table 11.

[4] = test system: carcinoma cell line CO-115 of the large intestine; details: cytotoxic activity; cited from earlier work
184B5/HER = assay: In vitro cytotoxicity, Breast (1), 184B5/HER; format: cell-based; details: 1 × 10^−4 M
Bladder cancer cells = details: 1 × 10^−4 M; Bladder (1), cell line not given
NCI-H460 = assay: In vitro cytotoxicity, Lung (2), NCI-H460; format: cell-based, human
SF-268 = assay: In vitro cytotoxicity, CNS (2), SF-268; format: cell-based, human
MCF7 = assay: In vitro cytotoxicity, Breast (2), MCF7; format: cell-based, human
DU-145 = assay: In vitro cytotoxicity, Prostate (2), DU-145; format: cell-based, human
T-47d = assay: In vitro cytotoxicity, Breast (2), T-47d; format: cell-based, human
MALME-3M = assay: In vitro cytotoxicity, Melanoma (2), MALME-3M; format: cell-based, human
OVCAR-5 = assay: In vitro cytotoxicity, Ovarian (2), OVCAR-5; format: cell-based, human
Description: as §1

NCI-H322M = assay: In vitro cytotoxicity, Lung (2), NCI-H322M; format: cell-based, human
Description: as §1

OVACR-3 = assay: In vitro cytotoxicity, Ovarian (2), OVACR-3; format: cell-based, human
Description: as §1

RXF 393 = assay: In vitro cytotoxicity, Renal (2), RXF 393; format: cell-based, human
PC-3 = assay: In vitro cytotoxicity, Prostate (2), PC-3; format: cell-based, human
U251 = assay: In vitro cytotoxicity, CNS (2), U251; format: cell-based, human
CAKI-1 = assay: In vitro cytotoxicity, Renal (2), CAKI-1; format: cell-based, human
Description: as §1

TK-10 = assay: In vitro cytotoxicity, Renal (2), TK-10; format: cell-based, human
Description: as §1

HOP-92 = assay: In vitro cytotoxicity, Lung (2), HOP-92; format: cell-based, human
Description: as §1

[5] = test system: different human tumor cell lines; assay: In vitro cell toxicity test by NCI, tumor cell line panel; format: cell-based; details: tested by NCI; comparison among compounds 2, 3, 4 and 5

C=C(C)C1CCC2(C(=O)NCCCCC(NC(=O)OC(C)(C)C)C(=O)O)CC[C@]3(C)[C@H](CC[C@@H]4[C@@]5(C)CCC(=O)C(C)(C)[C@@H]5CC[C@]43C)C12 (stereo partly shown) [Monomer-Boc]
Concentration of drug (mg/mL) [1]: 0.7 mg/mL
Concentration of drug (mol/L) [1]: 0.001 mol/L
tolerability in mice [2]: well tolerated

C=C(C)[C@@H]1CC[C@]2(CO)CC[C@]3(C)[C@H](CC[C@@H]4[C@@]5(C)CC[C@H](OC(C)=O)C(C)(C)[C@@H]5CC[C@]43C)[C@@H]12 [Compound 8, 3-Acetoxy Betulin]
Growth Inhibition % ([3]; 24 hours, 2.5 × 10^−5 (M)): 12.4%
Growth Inhibition % ([3]; 24 hours, 2.5 × 10^−6 (M)): 10.4%
Growth Inhibition % ([3]; 24 hours, 2.5 × 10^−7 (M)): 0%
Growth Inhibition % ([3]; 48 hours, 2.5 × 10^−5 (M)): 28.3%
Growth Inhibition % ([3]; 48 hours, 2.5 × 10^−6 (M)): 44.7%
Growth Inhibition % ([3]; 48 hours, 2.5 × 10^−7 (M)): 17.4%

C=C(C)[C@@H]1CC[C@]2(C=O)CC[C@]3(C)[C@H](CC[C@@H]4[C@@]5(C)CC[C@H](O)C(C)(C)[C@@H]5CC[C@]43C)[C@@H]12 [Compound 3, Betulin Aldehyde]
Growth Inhibition % ([3]; 24 hours, 2.5 × 10^−5 (M)): 29.5%
Growth Inhibition % ([3]; 24 hours, 2.5 × 10^−6 (M)): 11.0%
Growth Inhibition % ([3]; 24 hours, 2.5 × 10^−7 (M)): 6.34%
Growth Inhibition % ([3]; 48 hours, 2.5 × 10^−5 (M)): 72.3%
Growth Inhibition % ([3]; 48 hours, 2.5 × 10^−6 (M)): 40.9%
Growth Inhibition % ([3]; 48 hours, 2.5 × 10^−7 (M)): 27.6%

C=C(C)C1CCC2(C(=O)NCCCCC(NC(=O)OC(C)(C)C)C(=O)OC)CC[C@]3(C)[C@H](CC[C@@H]4[C@@]5(C)CCC(=O)C(C)(C)[C@@H]5CC[C@]43C)C12 (stereo partly shown) [Monomer]
inhibition at 100 µM ([3]; 24 h, 24 hours): 76.5 ± 22.6%
inhibition at 10 µM ([3]; 24 h, 24 hours): 19 ± 14.4%
inhibition at 1 µM ([3]; 24 h, 24 hours): 5.5 ± 7.32%
inhibition at 100 µM ([3]; 48 h, 48 hours): ~80%
inhibition at 10 µM ([3]; 48 h, 48 hours): 36.8%
inhibition at 1 µM ([3]; 48 h, 48 hours): 15 ± 11.2%
inhibition at 100 µM ([3]; 72 h, 72 hours): 79.2 ± 16.5%
inhibition at 10 µM ([3]; 72 h, 72 hours): 40.5 ± 33.6%
inhibition at 1 µM ([3]; 72 h, 72 hours): 17.2 ± 32.5%

C=C(C)[C@@H]1CC[C@]2(C(=O)O)CC[C@]3(C)[C@H](CC[C@@H]4[C@@]5(C)CC[C@H](O)C(C)(C)[C@@H]5CC[C@]43C)[C@@H]12 [Compound 2, Betulinic Acid]
LD 50 [4]: 0.375 mg/mL
Growth Inhibition % ([3]; 24 hours, 2.5 × 10^−5 (M)): 41.0%
Growth Inhibition % ([3]; 24 hours, 2.5 × 10^−6 (M)): 24.6%
Growth Inhibition % ([3]; 24 hours, 2.5 × 10^−7 (M)): 11.72%
Growth Inhibition % ([3]; 48 hours, 2.5 × 10^−5 (M)): 73.3%
Growth Inhibition % ([3]; 48 hours, 2.5 × 10^−6 (M)): 69.4%
Growth Inhibition % ([3]; 48 hours, 2.5 × 10^−7 (M)): 62.8%

C=C(C)C1CCC2(COC)CCC3(C)C(CCC4C5(C)CCC(OC)C(C)(C)C5CCC43C)C12 (stereo not shown) [Compound 7, Betulin Dimethyl ether (Cornelon)]
Percent Killed (184B5/HER): Toxic
Percent Killed (Bladder cancer cells): 30%
Percent Killed (NCI-H460; 1 × 10^−4 M): 80%
Percent Killed (SF-268; 1 × 10^−4 M): 100%
Percent Killed (MCF7; 1 × 10^−4 M): 97%

C=C(C)[C@@H]1CC[C@]2(COC(C)=O)CC[C@]3(C)[C@H](CC[C@@H]4[C@@]5(C)CC[C@H](OC(C)=O)C(C)(C)[C@@H]5CC[C@]43C)[C@@H]12 [Compound 6, Betulin Diacetate]
Percent Killed (DU-145; 1 × 10^−4 M): 100%
Percent Killed (DU-145; 1 × 10^−5 M): 100%
Percent Killed (DU-145; 1 × 10^−6 M): 100%
Percent Killed (DU-145; 1 × 10^−7 M): 100%
Percent Killed (DU-145; 1 × 10^−8 M): 27%
Percent Killed (T-47d; 1 × 10^−4 M): 100%
Percent Killed (T-47d; 1 × 10^−5 M): 100%
Percent Killed (T-47d; 1 × 10^−6 M): 100%
Percent Killed (T-47d; 1 × 10^−7 M): 23%
Percent Killed (MALME-3M; 1 × 10^−4 M): 100%
Percent Killed (MALME-3M; 1 × 10^−5 M): 100%
Percent Killed (MALME-3M; 1 × 10^−6 M): 100%
Percent Killed (MALME-3M; 1 × 10^−7 M): 100%
Percent Killed (MALME-3M; 1 × 10^−8 M): 98%
Percent Killed (NCI-H460; 1 × 10^−4 M): 100%
Percent Killed (NCI-H460; 1 × 10^−5 M): 100%
Percent Killed (NCI-H460; 1 × 10^−6 M): 100%
Percent Killed (NCI-H460; 1 × 10^−7 M): 25%
Percent Killed (OVCAR-5; 1 × 10^−4 M): 100%
Percent Killed (OVCAR-5; 1 × 10^−5 M): 100%
Percent Killed (OVCAR-5; 1 × 10^−6 M): 100%
Percent Killed (NCI-H322M; 1 × 10^−4 M): 100%
Percent Killed (NCI-H322M; 1 × 10^−5 M): 100%
Percent Killed (NCI-H322M; 1 × 10^−6 M): 100%
Percent Killed (OVACR-3; 1 × 10^−4 M): 100%
Percent Killed (OVACR-3; 1 × 10^−5 M): 100%
Percent Killed (OVACR-3; 1 × 10^−6 M): 96%
Percent Killed (SF-268; 1 × 10^−4 M): 100%
Percent Killed (SF-268; 1 × 10^−5 M): 100%
Percent Killed (SF-268; 1 × 10^−6 M): 100%
Percent Killed (SF-268; 1 × 10^−7 M): 75%
Percent Killed (SF-268; 1 × 10^−8 M): 15%
Percent Killed (RXF 393; 1 × 10^−4 M): 100%
Percent Killed (RXF 393; 1 × 10^−5 M): 100%
Percent Killed (RXF 393; 1 × 10^−6 M): 100%
Percent Killed (RXF 393; 1 × 10^−7 M): 97%
Percent Killed (RXF 393; 1 × 10^−8 M): 15%
Percent Killed (PC-3; 1 × 10^−4 M): 25%
Percent Killed (PC-3; 1 × 10^−5 M): 15%
Percent Killed (U251; 1 × 10^−4 M): 100%
Percent Killed (U251; 1 × 10^−5 M): 100%
Percent Killed (U251; 1 × 10^−6 M): 100%
Percent Killed (U251; 1 × 10^−7 M): 100%
Percent Killed (CAKI-1; 1 × 10^−4 M): 100%
Percent Killed (CAKI-1; 1 × 10^−5 M): 100%
Percent Killed (CAKI-1; 1 × 10^−6 M): 100%
Percent Killed (TK-10; 1 × 10^−4 M): 100%
Percent Killed (TK-10; 1 × 10^−5 M): 100%
Percent Killed (TK-10; 1 × 10^−6 M): 49%
Percent Killed (HOP-92; 1 × 10^−4 M): 100%
Percent Killed (HOP-92; 1 × 10^−5 M): 100%
Percent Killed (HOP-92; 1 × 10^−6 M): 100%
Percent Killed (MCF7; 1 × 10^−4 M): 100%
Percent Killed (MCF7; 1 × 10^−5 M): 100%
Percent Killed (MCF7; 1 × 10^−6 M): 100%
Percent Killed (MCF7; 1 × 10^−7 M): 100%

C=C(C)C1CCC2(C=O)CCC3(C)C(CCC4C5(C)CCC(=O)C(C)(C)C5CCC43C)C12 (stereo not shown) [Compound 5, Betulon Aldehyde]
Percent Killed (Bladder cancer cells): 29%
Percent Killed (NCI-H460; 1 × 10^−4 M): 89%
cell growth inhibitory properties against different human tumor cell lines [5]: most effective inhibition of cell growth without selective activity
Percent Killed (SF-268; 1 × 10^−4 M): 27%
Percent Killed (MCF7; 1 × 10^−4 M): 68%
